Experimental data taken from patent US6481154B1, “Method of large-scale propagation of trees of genus Swietenia” (Sumitomo Forestry Co., Ltd., priority 2000, dated 2002).

Tests used:
Assay type in all cases: cell-based
[1] = tested on: single shoots of Swietenia macrophylla; assay: Rooting of single shoots on modified B5 rooting medium
Experimental: A large number of shoots obtained in (4) are cut to single shoots, which were then transplanted to a rooting medium. […] Culturing temperature was 26±2° C. under illumination of fluorescent lamps for 16 hours per day (3,000 to 9,000 Lux).

[2] = tested on: single shoots of Swietenia macrophylla; assay: Rooting condition (1): modified B5 medium for 3 months
Experimental: (§1) A large number of shoots obtained in (4) were cut to single shoots which were cultured in the following procedures:
(1) The single shoots were cultured on a modified B5 medium containing 0 to 10.0 mg/l of IBA for 3 months, while transplanting the shoots to a fresh medium of the same composition every month.
(§2) All the above (1)-(4) cultures were conducted under conditions wherein a temperature was 26±2° C., a humidity was 60 to 90% and a light intensity was 3,000 to 9,000 Lux. Further, all the modified media in the above (1)-(4) contained 2.8 g/l of gelright.

[3] = tested on: single shoots of Swietenia macrophylla; assay: Rooting conditions (3): modified MS, then modified B5, then modified MS, one month each; conditions: for Rooting rate (%) For first one month / Rooting rate (%) For second one month / Rooting rate (%) For third one month / Withering rate (%) For first one month / Withering rate (%) For second one month / Withering rate (%) For third one month: rooting conditions (3)
Experimental: as §1
(3) The single shoots were cultured on a modified MS medium containing 0 to 10.0 mg/l of IBA for one month, then on a modified B5 medium containing 0 to 10.0 mg/l of IBA for one month and further on a modified MS medium containing 0 to 10.0 mg/l of IBA for one month.
as §2

O=C(O)CCCc1c[nH]c2ccccc12 [IBA, 3-indole butyric acid]
effectiveness for rooting ([1]; 2.5 mg/l of IBA): effective | single shoots rooted ([1]; 1.0 to 5.0 mg/l of IBA, one to two months after the start of culturing): 18.5% | Number of rooted single shoots ([1]; IBA 1.0 mg/l): 1/27 | Number of rooted single shoots ([1]; IBA 2.0 mg/l): 2/30 | Number of rooted single shoots ([1]; IBA 2.5 mg/l): 5/27 | Number of rooted single shoots ([1]; IBA 3.0 mg/l): 0/26 | Number of rooted single shoots ([1]; IBA 4.0 mg/l): 1/25 | Number of rooted single shoots ([1]; IBA 5.0 mg/l): 0/26 | Number of rooted single shoots ([1]; IBA 10.0 mg/l): 0/26 | Rooting rate (%) For first one month ([2]; IBA 0.1 mg/l): 0.0% | Rooting rate (%) For second one month ([2]; IBA 0.1 mg/l): 0.0% | Rooting rate (%) For third one month ([2]; IBA 0.1 mg/l): 0.0% | Withering rate (%) For first one month ([2]; IBA 0.1 mg/l): 84.6% | Withering rate (%) For second one month ([2]; IBA 0.1 mg/l): 100.0% | Withering rate (%) For third one month ([2]; IBA 0.1 mg/l): 100.0% | Rooting rate (%) For first one month ([2]; IBA 1.0 mg/l): 0.0% | Rooting rate (%) For second one month ([2]; IBA 1.0 mg/l): 3.7% | Rooting rate (%) For third one month ([2]; IBA 1.0 mg/l): 3.7% | Withering rate (%) For first one month ([2]; IBA 1.0 mg/l): 14.8% | Withering rate (%) For second one month ([2]; IBA 1.0 mg/l): 55.6% | Withering rate (%) For third one month ([2]; IBA 1.0 mg/l): 96.3% | Rooting rate (%) For first one month ([2]; IBA 2.0 mg/l): 0.0% | Rooting rate (%) For second one month ([2]; IBA 2.0 mg/l): 6.7% | Rooting rate (%) For third one month ([2]; IBA 2.0 mg/l): 6.7% | Withering rate (%) For first one month ([2]; IBA 2.0 mg/l): 13.3% | Withering rate (%) For second one month ([2]; IBA 2.0 mg/l): 40.0% | Withering rate (%) For third one month ([2]; IBA 2.0 mg/l): 73.3% | Rooting rate (%) For first one month ([2]; IBA 2.5 mg/l): 0.0% | Rooting rate (%) For second one month ([2]; IBA 2.5 mg/l): 18.5% | Rooting rate (%) For third one month ([2]; IBA 2.5 mg/l): 18.5% | Withering rate (%) For first one month ([2]; IBA 2.5 mg/l): 11.1% | Withering rate (%) For second one month ([2]; IBA 2.5 mg/l): 40.7% | Withering rate (%) For third one month ([2]; IBA 2.5 mg/l): 66.7% | Rooting rate (%) For first one month ([2]; IBA 3.0 mg/l): 0.0% | Rooting rate (%) For second one month ([2]; IBA 3.0 mg/l): 0.0% | Rooting rate (%) For third one month ([2]; IBA 3.0 mg/l): 0.0% | Withering rate (%) For first one month ([2]; IBA 3.0 mg/l): 26.9% | Withering rate (%) For second one month ([2]; IBA 3.0 mg/l): 57.7% | Withering rate (%) For third one month ([2]; IBA 3.0 mg/l): 73.1% | Rooting rate (%) For first one month ([2]; IBA 4.0 mg/l): 0.0% | Rooting rate (%) For second one month ([2]; IBA 4.0 mg/l): 4.0% | Rooting rate (%) For third one month ([2]; IBA 4.0 mg/l): 4.0% | Withering rate (%) For first one month ([2]; IBA 4.0 mg/l): 40.0% | Withering rate (%) For second one month ([2]; IBA 4.0 mg/l): 72.0% | Withering rate (%) For third one month ([2]; IBA 4.0 mg/l): 100.0% | Rooting rate (%) For first one month ([2]; IBA 5.0 mg/l): 0.0% | Rooting rate (%) For second one month ([2]; IBA 5.0 mg/l): 0.0% | Rooting rate (%) For third one month ([2]; IBA 5.0 mg/l): 0.0% | Withering rate (%) For first one month ([2]; IBA 5.0 mg/l): 53.8% | Withering rate (%) For second one month ([2]; IBA 5.0 mg/l): 84.6% | Withering rate (%) For third one month ([2]; IBA 5.0 mg/l): 100.0% | Rooting rate (%) For first one month ([2]; IBA 10.0 mg/l): 0.0% | Rooting rate (%) For second one month ([2]; IBA 10.0 mg/l): 0.0% | Rooting rate (%) For third one month ([2]; IBA 10.0 mg/l): 0.0% | Withering rate (%) For first one month ([2]; IBA 10.0 mg/l): 80.8% | Withering rate (%) For second one month ([2]; IBA 10.0 mg/l): 96.2% | Withering rate (%) For third one month ([2]; IBA 10.0 mg/l): 100.0% | effectiveness versus continuous culture on a single kind of medium ([3]; 2.5 mg/l of IBA, modified MS, modified B5, modified MS, one month each): more effective | effectiveness for rooting ([3]; 2.5 mg/l of IBA, procedure (3)): particularly effective | Rooting rate (%) For first one month ([3]; IBA 0.1 mg/l): 0.0% | Rooting rate (%) For second one month ([3]; IBA 0.1 mg/l): 0.0% | Rooting rate (%) For third one month ([3]; IBA 0.1 mg/l): 0.0% | Withering rate (%) For first one month ([3]; IBA 0.1 mg/l): 7.7% | Withering rate (%) For second one month ([3]; IBA 0.1 mg/l): 73.1% | Withering rate (%) For third one month ([3]; IBA 0.1 mg/l): 84.6% | Rooting rate (%) For first one month ([3]; IBA 1.0 mg/l): 0.0% | Rooting rate (%) For second one month ([3]; IBA 1.0 mg/l): 10.0% | Rooting rate (%) For third one month ([3]; IBA 1.0 mg/l): 40.0% | Withering rate (%) For first one month ([3]; IBA 1.0 mg/l): 0.0% | Withering rate (%) For second one month ([3]; IBA 1.0 mg/l): 30.0% | Withering rate (%) For third one month ([3]; IBA 1.0 mg/l): 50.0% | Rooting rate (%) For first one month ([3]; IBA 2.0 mg/l): 0.0% | Rooting rate (%) For second one month ([3]; IBA 2.0 mg/l): 10.0% | Rooting rate (%) For third one month ([3]; IBA 2.0 mg/l): 40.0% | Withering rate (%) For first one month ([3]; IBA 2.0 mg/l): 0.0% | Withering rate (%) For second one month ([3]; IBA 2.0 mg/l): 30.0% | Withering rate (%) For third one month ([3]; IBA 2.0 mg/l): 40.0% | Rooting rate (%) For first one month ([3]; IBA 2.5 mg/l): 0.0% | Rooting rate (%) For second one month ([3]; IBA 2.5 mg/l): 40.0% | Rooting rate (%) For third one month ([3]; IBA 2.5 mg/l): 70.0% | Withering rate (%) For first one month ([3]; IBA 2.5 mg/l): 0.0% | Withering rate (%) For second one month ([3]; IBA 2.5 mg/l): 0.0% | Withering rate (%) For third one month ([3]; IBA 2.5 mg/l): 20.0% | Rooting rate (%) For first one month ([3]; IBA 3.0 mg/l): 0.0% | Rooting rate (%) For second one month ([3]; IBA 3.0 mg/l): 10.0% | Rooting rate (%) For third one month ([3]; IBA 3.0 mg/l): 30.0% | Withering rate (%) For first one month ([3]; IBA 3.0 mg/l): 0.0% | Withering rate (%) For second one month ([3]; IBA 3.0 mg/l): 50.0% | Withering rate (%) For third one month ([3]; IBA 3.0 mg/l): 50.0% | Rooting rate (%) For first one month ([3]; IBA 4.0 mg/l): 0.0% | Rooting rate (%) For second one month ([3]; IBA 4.0 mg/l): 0.0% | Rooting rate (%) For third one month ([3]; IBA 4.0 mg/l): 0.0% | Withering rate (%) For first one month ([3]; IBA 4.0 mg/l): 20.0% | Withering rate (%) For second one month ([3]; IBA 4.0 mg/l): 60.0% | Withering rate (%) For third one month ([3]; IBA 4.0 mg/l): 80.0% | Rooting rate (%) For first one month ([3]; IBA 5.0 mg/l): 0.0% | Rooting rate (%) For second one month ([3]; IBA 5.0 mg/l): 0.0% | Rooting rate (%) For third one month ([3]; IBA 5.0 mg/l): 0.0% | Withering rate (%) For first one month ([3]; IBA 5.0 mg/l): 40.0% | Withering rate (%) For second one month ([3]; IBA 5.0 mg/l): 50.0% | Withering rate (%) For third one month ([3]; IBA 5.0 mg/l): 100.0% | Rooting rate (%) For first one month ([3]; IBA 10.0 mg/l): 0.0% | Rooting rate (%) For second one month ([3]; IBA 10.0 mg/l): 0.0% | Rooting rate (%) For third one month ([3]; IBA 10.0 mg/l): 0.0% | Withering rate (%) For first one month ([3]; IBA 10.0 mg/l): 50.0% | Withering rate (%) For second one month ([3]; IBA 10.0 mg/l): 100.0% | Withering rate (%) For third one month ([3]; IBA 10.0 mg/l): 100.0% | single shoots rooted ([3]; procedure (3), 3 months after the start of culturing, 2.5 mg/l of IBA): 70.0%
